Experimental data taken from PubChem BioAssay (NCI).
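Values below derive from 48-hour exposures of cells grown in 96-well plates, with endpoints linearly interpolated between the two concentrations bracketing the appropriate inhibition level. The concentration for 50% growth inhibition is given as GI50. TGI: concentration producing complete growth inhibition.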

Legend:
Test in all cases: NCI tumour cell line growth inhibition, 48 h
OVCAR-5 ovarian = test system: OVCAR-5 ovarian
MDA-MB-435 = test system: MDA-MB-435
MOLT-4 leukemia = test system: MOLT-4 leukemia
COLO 205 colon = test system: COLO 205 colon
MCF7 breast = test system: MCF7 breast
OVCAR-8 ovarian = test system: OVCAR-8 ovarian
CAKI-1 renal = test system: CAKI-1 renal
HS 578T breast = test system: HS 578T breast
UACC-62 melanoma = test system: UACC-62 melanoma
SF-539 CNS = test system: SF-539 CNS

Structure (SMILES)	TGI (OVCAR-5 ovarian) [µM]	TGI (MDA-MB-435) [µM]	TGI (MOLT-4 leukemia) [µM]	TGI (COLO 205 colon) [µM]	TGI (MCF7 breast) [µM]	TGI (OVCAR-8 ovarian) [µM]	TGI (CAKI-1 renal) [µM]	TGI (HS 578T breast) [µM]	TGI (UACC-62 melanoma) [µM]	TGI (SF-539 CNS) [µM]	GI50 (MDA-MB-435) [µM]	GI50 (SF-539 CNS) [µM]	GI50 (MOLT-4 leukemia) [µM]	GI50 (COLO 205 colon) [µM]	GI50 (MCF7 breast) [µM]	GI50 (OVCAR-8 ovarian) [µM]	GI50 (CAKI-1 renal) [µM]	GI50 (HS 578T breast) [µM]	GI50 (UACC-62 melanoma) [µM]
Nc1[nH]c(=O)nc2c1ncn2C1OC(CO)C(O)C1O (stereo not given)	> 100	> 100	63.3	> 100	> 100	74.4	> 100	> 100	> 100										
COC1(CC[C@@H](C)COC2OC(CO)C(O)C(O)C2O)OC2C[C@H]3[C@@H]4CC[C@H]5C[C@@H](OC6OC(CO)C(OC7OC(CO)C(O)C(O)C7O)C(O)C6OC6OC(C)C(O)C(O)C6O)[C@H](O)C[C@]5(C)[C@H]4CC[C@]3(C)C2[C@@H]1C (stereo not given in full)	4.57	3.5	8.14	6.69	7.84	3.75	4.29	7.25	3.45	3.34									
CCC1(c2ccc(N3C(=O)c4cccc5cc([N+](=O)[O-])cc(c45)C3=O)cc2)CCC(=O)NC1=O (stereo not given)	> 100	> 100	> 100	> 100	> 100	28	50.9	64.4	> 100										
O=c1[nH]c(=O)n(COC(CO)CO)cc1-c1ccccc1	> 100	> 100	> 100	> 100	> 100	> 100	> 100	> 100	> 100										
O=S(=O)(Nc1nc2ccccc2nc1N1CCCCCC1)c1ccccc1	> 100	64.6	44.2	> 100	> 100	> 100	> 100	83.9	52.9	95.7									
O=C(O)CSC(CC(=O)c1ccc(Cl)cc1)c1ccc(Cl)cc1 (stereo not given)	> 100	> 100	27	> 100	> 100	57	> 100	> 100	> 100	> 100									
COc1ccc(N2C(=O)C3c4[nH]c5c(C)cccc5c4C4CCC(C(C)C)CC4C3C2=O)cc1 (stereo not given)	29.7	23.3	11.2	> 100	31.4	42.9	37.6	27.7											
C/C(=N\Nc1nc2ccccc2s1)c1ccncn1	> 100	> 100		11.1	> 100	1.03	12.2	26.2	> 26.5	35.9									
N[C@@H](CCC(=O)NC(Cc1ccccc1)C(=O)NCP(=O)(O)O)C(=O)O (stereo not given in full)	> 100	> 100	> 100	> 100	> 100	> 100		> 100	> 100	> 100									
CN(CCCCCl)P(=O)(OCc1ccc([N+](=O)[O-])o1)OCC1OC(n2ccc(N)nc2=O)C(O)C1O (stereo not given)	> 100	8.21	11	2.69	17	> 100	> 100	6.46	40.6	38.9									
O=C1NC(O)c2cc3ccccc3cc2O1 (stereo not given)	> 100	> 100	> 100	> 100	> 100	> 100		> 100	48.5	89.9									
CCOC(=O)NC(=S)N(CC(=O)c1cc(OC)c(OC)c(OC)c1)c1ccc(Cl)cc1		> 100	> 100	> 100	> 100	> 100	> 100	> 100	> 100	> 100	> 100	> 100	52.3	> 100	> 100	> 100	63.5	96.4	55.2
NC(=O)[C@H](Cc1ccc(O)cc1)Nc1c(O)c2c(c(O)c1Cl)C(=O)C=CC2=O	> 10	4	2.43	3.36	2.97	> 6.26	5.18	> 9.16	4.29	5.28									
Cc1nc2c(Br)cc(Br)cc2c(=O)n1-c1ccccc1NC1OC(CO)C(O)C(O)C1O (stereo not given)	> 100	> 100	> 100	> 100	> 100	> 100	> 100	> 100	> 100	> 100									
O=CCCCCCOCc1ccccc1	> 100	> 100	37.4	> 100	> 100	> 100	> 66.8	> 100	> 89.4	> 100									
Clc1ccc2c(NCCCCCCNc3ccnc4cc(Cl)ccc34)ccnc2c1	17.9	12.5	8.09	4.62	7.27	4.9	24.1	> 48.8	8.66	3.6									
C[C@]12CC[C@H]3[C@@H](CC=C4C[C@@H](N5CCCC5)CC[C@@]43C)[C@@H]1C[C@H](N1CCCCC1)[C@@H]2O	> 100	> 100	> 100	> 100	> 100	> 100	> 100	> 100	> 100	> 100									
O=[N+]([O-])c1ccc(-n2nc3ccc4nonc4c3n2)cc1	> 100	> 100	> 100	> 100	> 100		73.7	50.1	> 100	> 100									
COc1cc(CCNC2=CC(=O)c3nc[nH]c3C2=O)ccc1O	35.8	31.4	89.1	56.5	33.5	47.6	> 100	72.8	36.8	> 100									
CCOC(=O)c1c(-c2ccc(OC)cc2)ccn1C	> 10	> 10	> 10	> 10	> 10	> 10	> 10	> 10	> 10	> 10									

Structure (SMILES)	TGI (OVCAR-5 ovarian) [µM]	TGI (MDA-MB-435) [µM]	TGI (MOLT-4 leukemia) [µM]	TGI (COLO 205 colon) [µM]	TGI (MCF7 breast) [µM]	TGI (OVCAR-8 ovarian) [µM]	TGI (CAKI-1 renal) [µM]	TGI (HS 578T breast) [µM]	TGI (UACC-62 melanoma) [µM]	TGI (SF-539 CNS) [µM]	GI50 (MDA-MB-435) [µM]	GI50 (SF-539 CNS) [µM]	GI50 (MOLT-4 leukemia) [µM]	GI50 (COLO 205 colon) [µM]	GI50 (MCF7 breast) [µM]	GI50 (OVCAR-8 ovarian) [µM]	GI50 (CAKI-1 renal) [µM]	GI50 (HS 578T breast) [µM]	GI50 (UACC-62 melanoma) [µM]
Oc1ccc(C(O)C2CCCCN2)cc1O (stereo not given)	> 100	> 100		> 100	> 100	> 100	> 100	> 100	> 100	> 100									
C=C(NC(=O)C(=C)NC(=O)c1ccc2c(n1)-c1coc(n1)C(=C)NC(=O)C(=C)NC(=O)c1nc(oc1C)C(=C)NC(=O)C(C(C)(C)O)NC(=O)C(=C)NC(=O)c1coc(n1)/C(=C/C)NC(=O)[C@H]([C@@H](C)O)NC(=O)c1csc-2n1)C(N)=O (stereo not given in full)	> 87.5	> 87.5	> 87.5	> 87.5	> 87.5	> 87.5	> 87.5	> 87.5		> 87.5									
CCN1CC2(C)CCC(OC)C34C5CC6CCC(O)(C5C(=O)O6)C(C(O)C23)C14 (stereo not given)	> 100	> 100	> 100	> 100	> 100	> 100	> 100	> 100	> 100	> 100									
COc1ccc(-c2ccc(C(=O)C=P(c3ccccc3)(c3ccccc3)c3ccccc3)cc2)cc1	44.8	30	10.9	13.9	30.2		42	67.6	28.9	35.9									
COc1cc2c(/C=C3/C(=O)Nc4ccccc43)c(Cl)n(Cc3ccc(Cl)cc3)c2cc1C	8.84	0.428	0.627	0.665	31.8	0.989	0.834	9.01	2.5	0.668									
COc1cccc2c1C(=O)c1c(O)c3c(c(O)c1C2=O)C[C@@](O)(C(C)=O)CC3OC1CC(OC2CC(N)C(O)C(C)O2)C(O)C(C)O1 (stereo not given in full)	> 100	> 100	7.24	> 100	> 59.6	> 100	> 100	> 100	> 100	> 76.8									
CCc1nc(N)c2nc(-c3cccs3)oc2n1	> 100	> 100	> 100	> 100	> 100	> 100	> 100	> 100	> 100	> 100									
O=C1/C(=C/c2ccccc2)Oc2cc(O)ccc21		> 100	> 100	> 100	> 100	> 100	> 100	> 100	> 100	> 100									
CCCCCC[C@H]([C@H](C)O)n1cnc2c(N)ncnc21	> 100	> 100	> 100	> 100	> 100	> 100	> 100	> 100	> 100	> 100									
Clc1ccc2c(c1)N(CCCN1CCCC13CCCCC3)c1ccccc1S2	36.3	27.4	18.9	> 54.9	32.3	42.6	> 76.8	34.2	31.1	33.4									
CCOC(=O)c1cc(-c2ccc(OC)cc2)c([N+](=O)[O-])[nH]1	> 10	> 10	> 10	> 10	> 10	> 10	> 10	> 10	> 10	> 10									
COC(=O)c1c2c(cc3c1CC1(Cc4cc5c(c(C=O)c4C1)CCC5)C3)CCC2 (stereo not given)	> 100	50.5	59.1		> 100	> 100	> 100	> 100		> 100									
O=c1c2cc(Br)cc(Br)c2[nH]c(=S)n1-c1ccc(N=Nc2ccc(O)c3cccnc23)cc1	> 100	> 100	> 100	> 100	25.9	> 100	> 100	> 100		31.3									
COC(=O)[C@]1(c2cc3ccccc3n2S(=O)(=O)c2ccccc2)CC2CN(C(=O)OCc3ccccc3)C1C1OC(C)(C)OC21 (stereo not given in full)	> 100	> 100	> 100	> 100	> 100	> 100	> 100	> 100	> 100										
Cn1/c(=N\N=C2\C=C3CCCCC3(C)CC2)sc2ccccc21 (stereo not given)	> 100	> 100		> 100	> 100	> 100	> 100	> 100	> 100	> 100									
COC(=O)c1sc(=O)sc1SCc1cccc(CSc2sc(=O)sc2C(=O)OC)c1	> 100	> 100	> 100	> 100	> 100	> 100	93.5	> 100	> 100										
O=C(O)c1c(CC(Cc2ccc3c(c2)CCC3)C(=O)O)ccc2c1CCC2 (stereo not given)	> 100	> 100	> 100	> 100	> 100	> 100	> 100	> 100		> 100									
CC(Nc1ccc(Cl)cc1)c1ccncc1 (stereo not given)	> 100	> 100	> 100	> 100	> 100	> 100	> 100	> 100		> 100									
CC1OC(OC2C(O[C@H]3CC[C@@]4(C)C(=CC[C@H]5[C@@H]6C[C@@H]7O[C@]8(CC[C@@H](C)CO8)[C@@H](C)[C@@H]7[C@@]6(C)CC[C@@H]54)C3)OC(CO)C(O)C2OC2OC(CO)C(O)C(O)C2O)C(O)C(O)C1O (stereo not given in full)	> 20.6	3.73	> 23.3	3.41	4.55	> 100	5.07	3.74		5.23									
CC(C)(C)C1CCC2c3c([nH]c4ccccc34)C3C(=O)N(c4ccc([N+](=O)[O-])cc4)C(=O)C3C2C1 (stereo not given)	> 100	> 100	56.8	21.1	17.9	> 100		39.3	39	42.7									
